From patent US9828379B2 (priority 2013, dated 2017)

Columns and labels:
ABHD6 [1] = molecular target: T1, ABHD6 (Mus musculus, UniProt Q8R2Y0); assay: biochemical; settings: in vitro competitive ABPP
T1 sequence (Q8R2Y0 1-336): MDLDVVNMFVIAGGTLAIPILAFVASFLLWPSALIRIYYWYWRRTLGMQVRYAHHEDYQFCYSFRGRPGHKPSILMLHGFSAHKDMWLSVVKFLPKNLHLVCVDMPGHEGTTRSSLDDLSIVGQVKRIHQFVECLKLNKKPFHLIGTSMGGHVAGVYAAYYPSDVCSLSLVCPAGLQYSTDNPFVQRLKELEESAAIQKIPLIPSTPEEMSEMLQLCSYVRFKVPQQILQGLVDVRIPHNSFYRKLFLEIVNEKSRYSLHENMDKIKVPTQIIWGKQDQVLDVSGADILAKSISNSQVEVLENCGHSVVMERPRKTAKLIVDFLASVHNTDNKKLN

FAAH [2] = molecular target: T2, FAAH (Mus musculus, UniProt O08914); assay: biochemical; settings: in vitro competitive ABPP
T2 sequence (O08914 1-579): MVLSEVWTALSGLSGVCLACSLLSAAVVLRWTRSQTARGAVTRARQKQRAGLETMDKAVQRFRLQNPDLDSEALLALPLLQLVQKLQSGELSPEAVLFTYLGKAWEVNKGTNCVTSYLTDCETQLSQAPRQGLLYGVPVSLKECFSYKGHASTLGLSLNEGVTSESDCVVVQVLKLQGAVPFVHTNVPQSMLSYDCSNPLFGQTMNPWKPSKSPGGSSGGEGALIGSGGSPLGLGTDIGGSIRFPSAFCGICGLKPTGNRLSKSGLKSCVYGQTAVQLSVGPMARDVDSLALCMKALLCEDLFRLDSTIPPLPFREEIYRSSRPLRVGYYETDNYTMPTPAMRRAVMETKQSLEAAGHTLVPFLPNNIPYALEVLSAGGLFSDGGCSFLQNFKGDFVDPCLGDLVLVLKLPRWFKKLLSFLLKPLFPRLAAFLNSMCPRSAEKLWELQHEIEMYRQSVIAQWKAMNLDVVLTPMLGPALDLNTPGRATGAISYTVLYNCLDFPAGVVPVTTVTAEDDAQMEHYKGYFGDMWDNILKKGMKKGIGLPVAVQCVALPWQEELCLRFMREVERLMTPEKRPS

MAGL [3] = molecular target: T3, MAGL (Mus musculus, UniProt O35678); assay: biochemical; settings: mouse; in vitro competitive ABPP; read-out: Mouse (IC50 value, nM) MAGL
T3 sequence (O35678 1-303): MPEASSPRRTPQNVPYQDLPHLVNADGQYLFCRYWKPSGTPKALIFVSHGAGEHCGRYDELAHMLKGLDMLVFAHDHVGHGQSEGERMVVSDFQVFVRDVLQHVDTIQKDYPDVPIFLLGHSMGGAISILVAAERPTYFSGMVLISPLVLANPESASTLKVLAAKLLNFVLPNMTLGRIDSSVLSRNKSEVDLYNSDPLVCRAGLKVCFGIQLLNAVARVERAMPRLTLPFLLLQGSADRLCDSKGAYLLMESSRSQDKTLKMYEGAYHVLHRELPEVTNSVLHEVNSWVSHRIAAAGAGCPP

Mouse brain MAGL = molecular target: T4, Mouse brain MAGL (Mus musculus, UniProt O35678); assay: Mouse brain proteomes from inhibitor treated mice (oral gavage, ABPP analysis); format: in vivo; settings: p.o., sacrificed 4 h following administration
T4 construct: from tissue; host or cells: brain of wild-type C57Bl/6J mice dosed by oral gavage
T4 sequence (O35678 1-303): T3 sequence (O35678 1-303)
Experimental: After 30 min, FP—Rh (1.0 μL, 50 μM in DMSO) was added and the mixture was incubated for another 30 min at 37° C. Reactions were quenched with SDS loading buffer (50 μL-4×) and run on SDS-PAGE. Following gel imaging, serine hydrolase activity was determined by measuring fluorescent intensity of gel bands corresponding to MAGL, ABHD6 and FAAH using ImageJ 1.43 u software.
Inhibitors were administered to wild-type C57Bl/6J by oral gavage in a vehicle of polyethylene glycol. Each animal was sacrificed 4 h following administration and brain proteomes were prepared and analyzed according to previously established methods (See Niphakis, M. J., et al. (2011) ACS Chem. Neurosci. and Long, J. Z., et al. Nat. Chem. Biol. 5:37-44).

ABHD6 [4] = molecular target: T1, ABHD6; assay: In vitro competitive activity-based protein profiling (Table 2, % inhibition at 1 μM); format: biochemical; settings: read-out: % Inhibition at 1 μM ABHD6
FAAH [5] = molecular target: T2, FAAH; assay: as above; format: biochemical; settings: read-out: % Inhibition at 1 μM FAAH
MAGL [6] = molecular target: T3, MAGL; assay: as above; format: biochemical; settings: read-out: % Inhibition at 1 μM MAGL
Experimental: After 30 min, FP—Rh (1.0 μL, 50 μM in DMSO) was added and the mixture was incubated for another 30 min at 37° C. Reactions were quenched with SDS loading buffer (50 μL-4×) and run on SDS-PAGE.
Cell lysates were diluted with mock proteomes for use in competitive ABPP experiments.

Row | SMILES | IC50 (ABHD6 [1]) [nM] | IC50 (FAAH [2]) [nM] | IC50 (MAGL [3]) [nM] | inhibition at 5 mg/kg (Mouse brain MAGL) [%] | inhibition at 1 µM (ABHD6 [4]) [%] | inhibition at 1 µM (FAAH [5]) [%] | inhibition at 1 µM (MAGL [6]) [%]
1 | O=C(OC(C(F)(F)F)C(F)(F)F)N1CC2CN(Cc3cccc(Cl)c3N3CC[C@H](CF)C3)CC2C1 (stereo partly drawn) [Example 173, 1,1,1,3,3,3-hexafluoropropan-2-yl 5-([3-chloro-2-[(3S)-3-(fluoromethyl)pyrrolidin-1-yl]phenyl]methyl)-octahydropyrrolo[3,4-c]pyrrole-2-carboxylate] | > 10000 | 1000 to 10000 | < 100 | 25 to 75 | 25 to 75 | < 25 | > 75
2 | CCn1cc(CN2CC3CN(C(=O)OC(C(F)(F)F)C(F)(F)F)CC3C2)c(-c2ccc(N3CCC3)cc2)n1 (stereo not shown) [Example 69, 1,1,1,3,3,3-Hexafluoropropan-2-yl 5-([3-[4-(azetidin-1-yl)phenyl]-1-ethyl-1H-pyrazol-4-yl]methyl)-octahydropyrrolo[3,4-c]pyrrole-2-carboxylate] | 1000 to 10000 | 1000 to 10000 | < 100 | ≤ 25 | 25 to 75 | < 25 | > 75
3 | Cc1c(CN2CC3CN(C(=O)OC(C(F)(F)F)C(F)(F)F)CC3C2)cccc1N1C2CCC1COC2 (stereo not shown) [Example 127, 1,1,1,3,3,3-hexafluoropropan-2-yl 5-[(2-methyl-3-[3-oxa-8-azabicyclo[3.2.1]octan-8-yl]phenyl)methyl]-octahydropyrrolo[3,4-c]pyrrole-2-carboxylate] | 1000 to 10000 | 1000 to 10000 | < 100 | 25 to 75 | 25 to 75 | < 25 | > 75
4 | CC(=O)N1CCN(c2cccc(CN3CC4CN(C(=O)OC(C(F)(F)F)C(F)(F)F)CC4C3)c2C)CC1 (stereo not shown) [Example 152, 1,1,1,3,3,3-hexafluoropropan-2-yl 5-[[3-(4-acetylpiperazin-1-yl)-2-methylphenyl]methyl]-octahydropyrrolo[3,4-c]pyrrole-2-carboxylate] | 1000 to 10000 | 1000 to 10000 | < 100 | ≤ 25 | 25 to 75 | < 25 | > 75
5 | CC(=O)N1CCC2(CCN(c3ccccc3CN3CC4CN(C(=O)OC(C(F)(F)F)C(F)(F)F)CC4C3)C2)C1 (stereo not shown) [Example 135, 1,1,1,3,3,3-hexafluoropropan-2-yl 5-[(2-[7-acetyl-2,7-diazaspiro[4.4]nonan-2-yl]phenyl)methyl]-octahydropyrrolo[3,4-c]pyrrole-2-carboxylate] | 1000 to 10000 | 1000 to 10000 | < 100 | ≤ 25 | < 25 | < 25 | > 75
6 | O=C(OC(C(F)(F)F)C(F)(F)F)N1CC2CN(Cc3ccc(Cl)cc3N3CCOC4CCCC43)CC2C1 (stereo not shown) [Example 4, 1,1,1,3,3,3-Hexafluoropropan-2-yl 5-(4-chloro-2-(hexahydrocyclopenta[b][1,4]oxazin-4(4aH)-yl)benzyl)hexahydropyrrolo[3,4-c]pyrrole-2(1H)-carboxylate] | 1000 to 10000 | 1000 to 10000 | 100 to 1000 | ≤ 25 | < 25 | < 25 | > 75
7 | CCn1cc(CN2CC3CN(C(=O)OC(C(F)(F)F)C(F)(F)F)CC3C2)c(-c2ccc(N3CCCC3)cc2)n1 (stereo not shown) [Example 67, 1,1,1,3,3,3-Hexafluoropropan-2-yl 5-([1-ethyl-3-[4-(pyrrolidin-1-yl)phenyl]-1H-pyrazol-4-yl]methyl)-octahydropyrrolo[3,4-c]pyrrole-2-carboxylate] | 1000 to 10000 | 1000 to 10000 | < 100 | 25 to 75 | < 25 | < 25 | > 75
8 | CCn1cc(CN2CC3CN(C(=O)OC(C(F)(F)F)C(F)(F)F)CC3C2)c(-c2cccc(N3CCCC3)c2)n1 (stereo not shown) [Example 64, 1,1,1,3,3,3-Hexafluoropropan-2-yl 5-([1-ethyl-3-[3-(pyrrolidin-1-yl)phenyl]-1H-pyrazol-4-yl]methyl)-octahydropyrrolo[3,4-c]pyrrole-2-carboxylate] | 1000 to 10000 | 1000 to 10000 | < 100 | 25 to 75 | < 25 | < 25 | > 75
9 | Cc1c(CN2CC3CN(C(=O)OC(C(F)(F)F)C(F)(F)F)CC3C2)cccc1N1CCCCC1 (stereo not shown) [Example 29, 1,1,1,3,3,3-Hexafluoropropan-2-yl 5-[[2-methyl-3-(piperidin-1-yl)phenyl]methyl]-octahydropyrrolo[3,4-c]pyrrole-2-carboxylate] | > 10000 | 1000 to 10000 | < 100 | ≤ 25 | < 25 | 25 to 75 | > 75
10 | CCn1cc(CN2CC3CN(C(=O)OC(C(F)(F)F)C(F)(F)F)CC3C2)c(-c2ccccc2N2CCCCC2)n1 (stereo not shown) [Example 130, 1,1,1,3,3,3-hexafluoropropan-2-yl 5-([1-ethyl-3-[2-(piperidin-1-yl)phenyl]-1H-pyrazol-4-yl]methyl)-octahydropyrrolo[3,4-c]pyrrole-2-carboxylate] | 1000 to 10000 | > 10000 | < 100 | ≤ 25 | < 25 | < 25 | > 75
11 | O=C(OC(C(F)(F)F)C(F)(F)F)N1CC2CN(Cc3cccc(N4CCC5(CCOC5)C4)c3C(F)(F)F)CC2C1 (stereo not shown) [Example 128, 1,1,1,3,3,3-hexafluoropropan-2-yl 5-[(3-[2-oxa-7-azaspiro[4.4]nonan-7-yl]-2-(trifluoromethyl)phenyl)methyl]-octahydropyrrolo[3,4-c]pyrrole-2-carboxylate] | 1000 to 10000 | 1000 to 10000 | < 100 | ≤ 25 | < 25 | < 25 | > 75
12 | CC(C)c1cc(CN2CC3CN(C(=O)OC(C(F)(F)F)C(F)(F)F)CC3C2)n(C2CCOCC2)n1 (stereo not shown) [Example 62, 1,1,1,3,3,3-Hexafluoropropan-2-yl 5-[[1-(oxan-4-yl)-3-(propan-2-yl)-1H-pyrazol-5-yl]methyl]-octahydropyrrolo[3,4-c]pyrrole-2-carboxylate] | 1000 to 10000 | 1000 to 10000 | < 100 | ≥ 75 | 25 to 75 | < 25 | > 75
13 | CCn1cc(CN2CC3CN(C(=O)OC(C(F)(F)F)C(F)(F)F)CC3C2)c(C(=O)NCc2ccccc2)n1 (stereo not shown) [Example 78, 1,1,1,3,3,3-Hexafluoropropan-2-yl 5-((3-(benzylcarbamoyl)-1-ethyl-1H-pyrazol-4-yl)methyl)hexahydropyrrolo[3,4-c]pyrrole-2(1H)-carboxylate] | 1000 to 10000 | > 10000 | < 100 | 25 to 75 | 25 to 75 | < 25 | > 75
